Experimental data published in the supplement of paper PMC10307832.

Key:
Experiment in all cases: relative viability (nuclei count vs DMSO), 5 days (fraction); higher = more cells survive
VE-821 + Vorinostat = compound: CS(=O)(=O)c1ccc(-c2cnc(N)c(C(=O)Nc3ccccc3)n2)cc1 [VE-821] + O=C(CCCCCCC(=O)Nc1ccccc1)NO [Vorinostat] (partner 1 µM)
Procedure, shortened: (§1)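 One day after seeding in 1536-well plates, lung cancer cell lines were dosed by pin tool. Dosing was either single-drug or a fixed anchor-drug dose plus five library-drug doses (not always all listed) in √10 steps. After 5 days, nuclei were stained in one fix-and-stain step and counted on 4× images, and relative viability is the nuclei count of treated wells over that of vehicle wells, given as the median of duplicate plates.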

Ruxolitinib + Alpelisib = compound: N#CC[C@H](C1CCCC1)n1cc(-c2ncnc3[nH]ccc23)cn1 [Ruxolitinib] + Cc1nc(NC(=O)N2CCC[C@H]2C(N)=O)sc1-c1ccnc(C(C)(C)C(F)(F)F)c1 [Alpelisib] (partner 2 µM)
Procedure, shortened: as §1

Vismodegib + OSI-027 = compound: CS(=O)(=O)c1ccc(C(=O)Nc2ccc(Cl)c(-c3ccccn3)c2)c(Cl)c1 [Vismodegib] + COc1cccc2cc(-c3nc([C@H]4CC[C@H](C(=O)O)CC4)n4ncnc(N)c34)[nH]c12 [OSI-027] (partner 0.5 µM)
Procedure, shortened: as §1

VE-821 + OSI-027 = compound: CS(=O)(=O)c1ccc(-c2cnc(N)c(C(=O)Nc3ccccc3)n2)cc1 [VE-821] + COc1cccc2cc(-c3nc([C@H]4CC[C@H](C(=O)O)CC4)n4ncnc(N)c34)[nH]c12 [OSI-027] (partner 0.5 µM)
Procedure, shortened: as §1

| Cell Line | relative viability (VE-821 + Vorinostat; first compound 0.08 µM) | relative viability (VE-821 + Vorinostat; first compound 0.253 µM) | relative viability (VE-821 + Vorinostat; first compound 0.8 µM) | relative viability (VE-821 + Vorinostat; first compound 2.53 µM) | relative viability (VE-821 + Vorinostat; first compound 8 µM) | relative viability (Ruxolitinib + Alpelisib; first compound 0.08 µM) | relative viability (Ruxolitinib + Alpelisib; first compound 0.253 µM) | relative viability (Ruxolitinib + Alpelisib; first compound 0.8 µM) | relative viability (Ruxolitinib + Alpelisib; first compound 2.53 µM) | relative viability (Ruxolitinib + Alpelisib; first compound 8 µM) | relative viability (Vismodegib + OSI-027; first compound 0.08 µM) | relative viability (Vismodegib + OSI-027; first compound 0.253 µM) | relative viability (Vismodegib + OSI-027; first compound 0.8 µM) | relative viability (Vismodegib + OSI-027; first compound 2.53 µM) | relative viability (Vismodegib + OSI-027; first compound 8 µM) | relative viability (VE-821 + OSI-027; first compound 0.08 µM) | relative viability (VE-821 + OSI-027; first compound 0.253 µM) | relative viability (VE-821 + OSI-027; first compound 0.8 µM) | relative viability (VE-821 + OSI-027; first compound 2.53 µM) | relative viability (VE-821 + OSI-027; first compound 8 µM) |
| --- | --- | --- | --- | --- | --- | --- | --- | --- | --- | --- | --- | --- | --- | --- | --- | --- | --- | --- | --- | --- |
| NCI-H2009 | 0.771 | 0.668 | 0.699 | 0.76 | 0.683 | 1.11 | 1.17 | 1.12 | 1.01 | 0.903 | 0.688 | 0.619 | 0.612 | 0.608 | 0.738 | 0.693 | 0.557 | 0.598 | 0.618 | 0.318 |
| SW 900 | 0.503 | 0.449 | 0.453 | 0.305 | 0.341 | – | – | – | – | – | 0.62 | 0.395 | 0.432 | 0.616 | 0.637 | 0.459 | 0.444 | 0.527 | 0.552 | 0.382 |
| NCI-H1703 | – | – | – | – | – | 0.316 | 0.343 | 0.382 | 0.19 | 0.283 | – | – | – | – | – | – | – | – | – | – |
| ChaGo-K-1 | 0.769 | 0.747 | 0.734 | 0.803 | 0.682 | – | – | – | – | – | 0.663 | 0.546 | 0.554 | 0.619 | 0.516 | 0.624 | 0.475 | 0.669 | 0.649 | 0.419 |
| EBC-1 | – | – | – | – | – | 0.833 | 0.889 | 0.997 | 0.876 | 0.777 | – | – | – | – | – | – | – | – | – | – |
| NCI-H2342 | 0.702 | 0.673 | 0.723 | 0.774 | 0.841 | – | – | – | – | – | 0.698 | 0.651 | 0.522 | 0.627 | 0.637 | 0.648 | 0.54 | 0.639 | 0.584 | 0.527 |
| NCI-H1299 | – | – | – | – | – | 1.05 | 1.08 | 1.05 | 0.949 | 0.996 | – | – | – | – | – | – | – | – | – | – |
| Calu-6 | – | – | – | – | – | 1.02 | 1.03 | 1.09 | 0.851 | 0.673 | – | – | – | – | – | – | – | – | – | – |
| NCI-H1792 | – | – | – | – | – | 0.652 | 0.687 | 0.651 | 0.515 | 0.714 | 0.766 | 0.75 | 0.606 | 0.679 | 0.623 | 0.725 | 0.786 | 0.608 | 0.447 | 0.484 |
| IA-LM | 0.951 | 0.976 | 0.941 | 1.26 | 0.903 | 0.676 | 0.849 | 0.959 | 0.584 | 0.679 | – | – | – | – | – | – | – | – | – | – |
| NCI-H1650 | 0.498 | 0.737 | 0.524 | 0.578 | 0.437 | – | – | – | – | – | 0.652 | 0.562 | 0.577 | 0.555 | 0.729 | 0.757 | 0.542 | 0.546 | 0.613 | 0.415 |
| NCI-H1648 | 0.483 | – | 0.485 | 0.532 | 0.641 | – | – | – | – | – | 0.22 | 0.27 | 0.29 | 0.258 | 0.207 | 0.291 | 0.25 | 0.244 | 0.246 | 0.239 |
| NCI-H522 | 1.02 | 0.811 | 0.921 | 0.994 | 0.732 | – | – | – | – | – | 0.805 | 0.742 | 0.672 | 0.659 | 0.812 | 0.718 | 0.779 | 0.76 | 0.65 | 0.677 |
| A549 | – | – | – | – | – | 0.775 | 0.708 | 0.841 | 0.574 | 0.495 | – | – | – | – | – | – | – | – | – | – |
